These results are taken from patent US20080182806A1, “USE OF ACETYLATED OR ESTERIFICATED AZACYTIDINE, DECITABINE, OR OTHER NUCLEOSIDE ANALOGS AS ORAL AGENTS FOR THE TREATMENT OF TUMORS OR OTHER DYSPLASTIC SYNDROMES SENSITIVE TO HYPOMETHYLATING AGENTS” (Nevada Cancer Institute, priority 2007, published 2008).

Bounds are passed on as bounds.

Series [1] in a line: Pharmacokinetics and metabolism of TAC in mice (plasma LC/MS/MS). The class given is in vivo. The conditions noted are these: female, C57/BL6, mouse. How it is done: The title product and its active metabolite azacytidine (ACT) were then subjected to LC/MS/MS analysis using the following protocol. Stock solutions were prepared by weighing out 5-10 mg of TAC which was dissolves in methanol to a final concentration of about 0.5 mg/ml. The solution was labeled as “TAC Stock.” 2-3 mg of ACT were then weighed and dissolved in methanol to a final concentration of about 0.2 mg/ml. The solution was labeled as “ACT Stock.” Finally, the TAC and ACT stocks were diluted to a concentration of about 50 μg/ml in methanol, and labeled as “ACT/TAC Stock.” All solutions were stored at −20° C. […]
Samples were then initially prepared as follows. A measured aliquot of the acetonitrile extracted plasma sample was removed and placed into a 10×75 mm disposable glass test tube, followed by evaporating liquid down to approximately 50 μl under nitrogen at 37° C., diluting with 1 ml 2% phosphoric acid, and vortexing for 10 seconds at 3,000 rpm.
The samples were then analyzed by the SPE, HPLC and MS/MS methods. […]
Individual concentration-time data were analyzed using noncompartmental methods using WinNonlin Professional (Pharsight, Mountain View, Calif.). […] The terminal rate constant (λz) is determined from the slope of the terminal phase of the plasma concentration-time curve using uniform weight. The terminal half-life (T1/2) was calculated as 0.693 divided by λz. […]

For the next series, the system named is global DNA methylation. As to the kind of experiment: Global DNA methylation in mouse tissues (Epigentek Methylamp Global DNA Methylation Quantification Kit). The class given is in vivo, mice. The conditions noted are these: for effect on global DNA methylation in the kidneys after 48 hours / reduction in global DNA methylation in the kidneys: 38 mg/kg TAC p.o. or 25 mg/kg ACT i.v.; for reduction in global DNA methylation in the kidneys: within 24 hours. The method, then:
The pharmacodynamic effect of TAC and ACT was determined at 24 and 48 hours following drug administration after the female C57/BL6 mice were euthanized, their tissues rapidly harvested, snap-frozen in liquid nitrogen, and stored at −80° C. The effect on methylation was determined by using the Epigentek Methylamp™ Global DNA Methylation Quantification Kit. Isolated genomic DNA from mouse tissues 24 or 48 hours after treatment with 25 mg/kg ACT i.v. and 38 mg/kg TAC p.o., methylation status was determined using 100 ng of each gDNA sample.

In series [2] the test system is myelodysplastic syndromes. The conditions noted are these: 75 mg/m^2 subcutaneously daily for 7 days every 4 weeks, cited from earlier work.
The next series deals with Lymphoid leukemia L1210. As to the kind of experiment: Survival of leukemic BDF1 mice inoculated i.p. with L1210 cells. It counts as in vivo. The method, then:
Lymphoid leukemia L1210 was carried in BDF1 mice by weekly i.p. passages. Ascites fluid was aspirated from a donor mouse and sampled, and an aliquot was carefully diluted and counted in a hemocytometer. The original suspension of cells was then diluted appropriately in […] medium to 1×10^6 cells/ml. and injected i.p. (1×10^5 cells/0.1 ml/mouse) into recipient BDF1 mice.
A daily oral administration injection of TAC (38 mg/kg) diluted in PBS was given to leukemic BDF1 mice by oral gavage starting 24 hours from the inoculation of L1210 cells for a total of 5 days. A group of untreated leukemic mice of the same strain, sex, age, and weight served as controls.

In series [3] the test system is myelodysplastic syndromes. The conditions noted are these: 15 mg/m^2 intravenously over 4 hours three times a day for 3 days; cited from earlier work.

For orientation: half-life means how long it takes for the measured level to halve. The low end stands for fast loss, the high end for slow loss.

Turning to `Nc1ncn([C@@H]2O[C@H](CO)[C@@H](O)[C@H]2O)c(=O)n1` [ACT, 4-amino-1-β-D-ribofuranosyl-1,3,5-triazin-2(1H)-one], the half-life in series [1] (iv, 25 mg/kg, azacytidine administered i.v., mice plasma) lay in the range of 4 to 5 h. In the series on global DNA methylation, the “effect on global DNA methylation in the kidneys after 48 hours” value is reported as “subsided” and the “reduction in global DNA methylation in the kidneys” value worked out at 50%. Moreover, the “mean time to response” value in series [2] is given as “six”. For the same compound, the response in series [2] (higher-risk groups) is 61%. Moreover, the response rate in series [2] (lower-risk patients with refractory anemia) is listed as 60%.
Turning to `CC(=O)OC[C@H]1O[C@@H](n2cnc(N)nc2=O)[C@H](OC(C)=O)[C@@H]1OC(C)=O` [TAC, 2′,3′,5′-triacetyl-5-azacytidine], in series [1] (plasma, by 4 hours after oral administration of 38 mg/kg TAC, read-out: TAC plasma concentration (below the limit of detection)), the concentration at 4 h was < 30 ng/mL. Besides, in the series with global DNA methylation, the “effect on global DNA methylation in the kidneys after 48 hours” value was “subsided” and the “reduction in global DNA methylation in the kidneys” value is 50%. The “further decrease in methylation in spleen compared to untreated tissue” value with global DNA methylation (spleen, later time point, oral TAC 38 mg/kg) is 40%. The same compound yielded a median survival time in the series on Lymphoid leukemia L1210 (TAC 38 mg/kg daily by oral gavage for 5 days, starting 24 hours after L1210 inoculation) of 14 days. Moreover, in the series with Lymphoid leukemia L1210 (TAC 38 mg/kg daily oral for 5 days versus untreated control group), the increased lifespan is reported as 55%.
As for `Nc1ncn([C@H]2C[C@H](O)[C@@H](CO)O2)c(=O)n1` [decitabine, 4-amino-1-(2-deoxy-b-D-erythro-pentofuranosyl)-1,3,5-triazin-2(1H)-one], the overall response rate in series [3] is given as 49%.
